For test [1], the target named is T1, Bovine renal cortical plasma membranes (HCF cell surface receptor) (Bos taurus, UniProt Q1LZF7).
T1 construct: from tissue; host or cells: bovine renal cortex plasma membranes
T1 sequence (Q1LZF7 29-589): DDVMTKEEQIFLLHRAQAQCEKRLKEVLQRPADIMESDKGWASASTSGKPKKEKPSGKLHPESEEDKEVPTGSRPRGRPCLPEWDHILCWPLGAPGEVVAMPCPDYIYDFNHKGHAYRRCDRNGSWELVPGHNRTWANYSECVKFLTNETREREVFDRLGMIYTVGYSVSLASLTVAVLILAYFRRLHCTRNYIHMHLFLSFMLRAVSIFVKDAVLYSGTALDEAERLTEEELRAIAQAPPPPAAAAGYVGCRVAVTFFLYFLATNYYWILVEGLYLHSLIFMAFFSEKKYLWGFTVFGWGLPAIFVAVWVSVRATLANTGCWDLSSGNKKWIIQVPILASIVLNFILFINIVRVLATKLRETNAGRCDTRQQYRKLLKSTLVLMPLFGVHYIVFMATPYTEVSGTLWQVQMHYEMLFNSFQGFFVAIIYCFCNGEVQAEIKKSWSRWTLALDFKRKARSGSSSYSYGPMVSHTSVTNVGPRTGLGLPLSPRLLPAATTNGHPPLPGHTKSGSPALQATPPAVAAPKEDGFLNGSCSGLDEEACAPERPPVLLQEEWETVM
Briefly: HCF binding assay (radioligand receptor assay). To be noted: radioligand [Nle^8,18,(^125 I)-Tyr^34]bPTH(1-34)NH2, 30 min at 21° C. On the procedure: HCF analogues were analysed in a new receptor assay which modified the assay reported in Rosenblatt et al., Endocrin 107: 545-550 (1980). The binding assay used [Nle^8,18, (^125 I)-Tyr^34 ]bPTH (1-34)NH2 which was purified by HPLC (Novapak C18, 32-35% CH3 CN in 0.1% TFA) and was stored as aliquots in 25 mM TrisHCl/1%BSAat -70° C. Bovine renal cortical plasma membranes were incubated with radioligand (25,000 cpm) in a Tris-containing buffer (250 μl) for 30 min. at 21° C. Once equilibrium was reached, bound and free radioligand were separated by centrifugation.
High specific binding (85%) to bovine renal cortical membranes was obtained consistently.
The assay reported on page 546 in Rosenblatt, et al. is as follows:
Radioligand binding assay: A PTH-binding assay based on the sulfur-free ^125 I-labeled hormone analog, [Nle-8,Nle-18,Tyr-34]-bPTH-(1-34)amide,was employed (4). The assay is specific and saturable with regard to PTH binding, and binding avidity in this system correlates closely with biological acitibity for multiple PTH agonist fragments and analogs. […] Inhibition of specific binding of radioligand was assessed for each fragment over several log orders of magnitude. […] In each assay, inhibition of radioligand binding was determined in triplicate at each concentration of peptide used.

The test system of test [2] is bovine renal membrane adenylate cyclase. To be noted: bovine renal cortical membranes; quoted from Horiuchi et al.; cited from earlier work.

`CC[C@H](C)[C@H](NC(=O)[C@H](CC(C)C)NC(=O)[C@H](Cc1c[nH]cn1)NC(=O)[C@H](Cc1c[nH]cn1)NC(=O)[C@H](CC(C)C)NC(=O)[C@H](Cc1ccccc1)NC(=O)[C@H](Cc1ccccc1)NC(=O)[C@H](CCCNC(=N)N)NC(=O)[C@H](CCCNC(=N)N)NC(=O)[C@H](CCCNC(=N)N)NC(=O)[C@H](CC(C)C)NC(=O)[C@H](CC(=O)O)NC(=O)[C@H](CCC(N)=O)NC(=O)[C@@H](NC(=O)[C@H](CO)NC(=O)[C@H](CCCCNC(=O)CCc1ccccc1)NC(=O)[C@@H](Cc1c[nH]c2ccccc12)NC(=O)[C@H](CC(C)C)NC(=O)[C@H](CC(=O)O)NC(=O)[C@H](Cc1c[nH]cn1)NC(=O)CCC(C)C)[C@@H](C)CC)C(=O)N[C@@H](C)C(=O)N[C@@H](CCC(=O)O)C(=O)N[C@H](C(=O)N[C@@H](Cc1c[nH]cn1)C(=O)N[C@H](C(=O)N[C@@H](C)C(N)=O)[C@@H](C)O)[C@@H](C)CC` [desamino [Leu^11, D-Trp^12, Lys^13 (N^ε --CO(CH2)2 -Phenyl)]hHCF(8-34)NH2] registered a Kb in test [1] of 20 ± 3 nM. Regarding hHCF-(1-34)NH2, the “potency in adenylate cyclase assay (stimulation)” value in test [2] is listed as “potency comparable to PTH”.

(Values after patent publication US5087562A, “Humoral hypercalcemic factor antagonists with modification at position 13 . . ” (Merck & Co., Inc., priority 1990, dated 1992).)
